Test results published in article PMC8376734, “RNAi-mediated gene knockdown of progesterone 5β-reductases in Digitalis lanata reduces 5β-cardenolide content” (Plant Cell Reports, 2021).

Assays:
rDlP5βR2 = system: T1, rDlP5βR2; experiment: NADPH consumption at […] nm, spectrophotometric; format: biochemical, Digitalis lanata; conditions: 0.2 mM NADPH, 40 °C, substrate 0.01-1.6 mM
T1 construct: gene P5βR2; recombinant in E. coli SoluBL21, pDEST17 vector, His-tagged, IMAC purified; cloned with primers deduced from D. purpurea P5βR2

rDlP5βR1 = target: T2, rDlP5βR1 (Digitalis lanata, UniProt Q6PQJ9); experiment: NADPH consumption at […] nm, spectrophotometric; format: biochemical; conditions: 0.2 mM NADPH, 40 °C, substrate 0.01-1.6 mM
T2 construct: recombinant in E. coli, pQE30 vector (Herl et al. 2006), His-tagged, IMAC purified
T2 sequence (Q6PQJ9 whole entry): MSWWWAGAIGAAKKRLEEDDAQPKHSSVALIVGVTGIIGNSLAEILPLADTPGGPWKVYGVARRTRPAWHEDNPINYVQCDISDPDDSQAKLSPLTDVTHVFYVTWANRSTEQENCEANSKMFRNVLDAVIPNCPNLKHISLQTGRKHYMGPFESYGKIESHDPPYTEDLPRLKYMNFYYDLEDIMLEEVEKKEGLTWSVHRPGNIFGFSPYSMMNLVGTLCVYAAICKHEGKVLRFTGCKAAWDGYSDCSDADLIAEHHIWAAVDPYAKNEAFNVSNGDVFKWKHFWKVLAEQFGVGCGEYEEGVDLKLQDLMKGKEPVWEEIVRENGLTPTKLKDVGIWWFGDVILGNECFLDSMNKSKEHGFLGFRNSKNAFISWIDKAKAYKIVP

Compound	Km (rDlP5βR2) [µM]	Km (rDlP5βR1) [µM]
C=CC(C)=O [methyl vinyl ketone]	210	270
CC(=O)[C@H]1CC[C@H]2[C@@H]3CCC4=CC(=O)CC[C@]4(C)[C@H]3CC[C@]12C [progesterone]	230	
